Literature values, collected in patent US10543293B2, “Medical dressing” (BSN MEDICAL GMBH, priority 2013, dated 2020).

Columns and labels:
keratinocytes = conditions: NO concentrations employed in vitro; human keratinocytes
[1] = generally assumed
human fibroblasts = conditions: NO concentrations employed in vitro
endothelial cells = conditions: NO concentrations employed in vitro; human endothelial cells

SMILES: [N]=O [NO, nitric oxide]
- toxic effects (keratinocytes): did not display any toxic effects
- maximum solubility of NO in aqueous solutions [1]: approximately 2 mM
- toxic effects (human fibroblasts): did not display any toxic effects
- toxic effects (endothelial cells): did not display any toxic effects
- diffusion coefficient of NO relative to oxygen or carbon monoxide (at 37° C., higher than that of oxygen or carbon monoxide): approximately 1.4 times
- diffusion path that can be achieved in the tissues (calculated on the basis of the diffusion coefficient): 500 μm
